Test results: paper PMC4122495, “Small Molecule Deubiquitinase Inhibitors Promote Macrophage Anti-Infective Capacity” (PLoS ONE, 2014)

What was measured:
L. monocytogenes [1] = test: Bactericidal test on exponential-phase bacteria, 2 h at 4°C; assay type: cell-based, Listeria monocytogenes 10403S; settings: concentrations up to 5 µM, exponential growth phase
Experimental: (§1) For bacterial growth curve in broth culture, an overnight culture of L. monocytogenes was back-diluted 1∶50 into BHI broth in the presence of 5 µM of compounds 1 to 4, 2.5 µM of compound 9 or equivalent volume of DMSO and incubated statically at 30°C for up to 8 h. At indicated time points (0, 2, 4, 6 and 8 h), a 50 µl-aliquot of bacteria was serially diluted and plated on LB agar to determine the number of CFU. To test the bactericidal properties of compound 9, an overnight culture of L. monocytogenes was back-diluted 1∶50 into BHI broth and allowed to grow at 37°C with shaking until an optical density at 600 nm (OD600) of ∼0.6–0.7 was obtained. Bacteria were then exposed to 1, 2.5 or 5 µM of compound 9 or equivalent volume of DMSO for 2 h at 4°C. After incubation, bacteria were serially diluted and plated on LB agar to determine CFU.

USP9x = tested on: USP9x; design: method as in Donato, N. J., manuscript in preparation; settings: cell-based assay; ref Donato, N. J., manuscript in preparation; read-out: IC50 against USP9x; cited from earlier work
L. monocytogenes [2] = test: L. monocytogenes intracellular growth assay in RAW264.7 macrophages; assay type: cell-based, Listeria monocytogenes 10403S; design: decrease in Listeria intracellular viability: concentration or dose not given beside the values
Experimental: RAW264.7 cells were cultured at an initial density of 4×10^6 cells per 24-well plate and allowed to adhere overnight. Macrophages were treated with 2.5 or 5 µM of DUB inhibitors dissolved in dimethyl sulfoxide (DMSO) for 0.5 or 1 h or with equivalent volume of DMSO (vehicle control) at 37°C. For dose-response curves, macrophages were incubated with 5, 2.5, 1 and 0.5 µM of compounds 1, 3 and 4 or 2.5, 2, 1 and 0.5 µM of compounds 2 and 9 for 0.5 h or 1 h at 37°C. DUB inhibitors were removed from cell culture prior to infection by changing the medium. Macrophages were infected with L. monocytogenes at a multiplicity of infection (MOI) of 1 for 0.5 h at 37°C. The inoculum was removed by washing infected cells three times with Dulbecco’s phosphate-buffered saline (PBS), and the cells were incubated in medium containing 10 µg/ml of gentamicin to kill extracellular bacteria for the duration of the experiment. At 8 h post-infection, cells were lysed in 1 ml 0.1% Triton X-100, serially diluted and plated on Luria-Bertani (LB) agar to enumerate the number of colony forming units (CFU). CFU were counted using the Acolyte SuperCount (Microbiology International, Frederick, MD) plate reader and software. Results were normalized to DMSO-treated cells.
Supplementary file pone.0104096.s001.tif: Figure S1 Dose-response curves for selected compounds. RAW264.7 cells were incubated with DMSO (equivalent volume) or the varying concentrations of WP1130-derivatives for 0.5 h (compounds 1, 2, 4 and 9) or 1 h (compound 3). After incubation, the medium was removed, and cells were infected at 37°C for 0.5 h at an MOI of 1 with L. monocytogenes in the absence of additional drugs. Following the 0.5 h infection, cells were washed and gentamycin (10 µg/ml) was added to kill extracellular bacteria. Intracellular bacteria were enumerated at 8 h post-infection. The data represent percent of Listeria intracellular growth compared to DMSO-treated cells from three independent experiments performed in triplicate. Non-linear regression curves were performed using the GraphPad Prism software. (TIF) Click here for additional data file.

L. monocytogenes [3] = test: Bacterial growth curve in BHI broth culture; assay type: cell-based, Listeria monocytogenes 10403S; settings: 2.5 µM in BHI broth
Experimental: as §1

[4] = tested on: ubiquitinated proteins (DUB activity) in RAW264.7 cells; test: Anti-ubiquitin immunoblot of RAW264.7 whole-cell lysates; assay type: cell-based, murine; settings: 2.5 µM, uninfected RAW264.7 cells, treatment 0.5 h to 6 h
Experimental: RAW264.7 cells were cultured at an initial density of 4×10^6 cells per 6-well plate and allowed to adhere overnight. Macrophages were treated with 2.5 µM compound 9 for the indicated period of time. To obtain whole-cell lysates, cells were lysed in cell lysis buffer (10 mM Tris pH 8, 150 mM NaCl, 1% NP-40, 10 mM EDTA pH 8, 1 mM DTT and 1X protease inhibitors), incubated for 15 min on ice and briefly sonicated. Samples were diluted in 5X concentrated sample buffer containing β-mercaptoethanol and denatured at 95°C for 10 min. The samples were separated by SDS-PAGE on an 8% acrylamide gel and transferred to polyvinyldene fluoride membrane (PVDF, Millipore). Immunodetection was performed using an anti-ubiquitin monoclonal antibody (P4D1 clone, Santa Cruz), according to manufacturer’s instructions.

RAW264.7 cells = test: WST-1 cell viability assay, conditions mimicking the bacterial infection protocol; assay type: cell-based, murine; settings: 2.5 µM, 0.5 h pre-treatment, then 8 h
Experimental: For cell viability assays in conditions that mimicked the bacterial infection protocol, RAW264.7 cells were cultured at an initial density of 4×10^6 cells per 96-well plate. Cells were treated with 2.5 or 5 µM DUB inhibitors dissolved in DMSO for 0.5 h or 1 h or with equivalent volume of DMSO. DUB inhibitors were removed after treatment by washing three times with PBS, and cells were incubated in culture media for 6.5 h at 37°C. The WST-1 reagent (Roche, San Francisco, CA), which measures mitochondrial dehydrogenase activity, was diluted 1 in 10 in media and cells were incubated at 37°C for an additional 1.5 h. The optical density at 440 nm (OD440) and 600 nm (OD600) was determined and results were normalized to DMSO-treated cells.

SMILES: CCCC(NC(=O)/C(C#N)=C/c1nc(Cl)ccc1Cl)c1ccc(OCCN2CCOCC2)cc1 (stereo not drawn) [Compound 9]
- bactericidal activity (L. monocytogenes [1]): No bactericidal activity
- IC50 (USP9x): 1800 nM
- EC50 (L. monocytogenes [2]; Listeria monocytogenes, RAW264.7 pre-treated with varying concentrations, then infected (MOI 1), intracellular CFU at 8 h post-infection, non-linear regression): 1920 nM
- decrease in Listeria intracellular viability (L. monocytogenes [2]; RAW264.7 pre-treated at each compound's working condition (Fig. 2B, 5B), 8 h post-infection, vs DMSO): 66.1%
- Decrease intracellular listeria viability (%) (L. monocytogenes [2]; conditions of Figure 2B and Figure 5B, maximal effective drug concentration used, 8 h post-infection, vs DMSO): 66.1%
- effect on overall CFU per ml by 8 h in broth culture (L. monocytogenes [3]): did not significantly affect overall CFU per ml by 8 h
- effect on growth rate in axenic broth culture (L. monocytogenes [3]; up to 8 h): modest decrease in the growth rate
- accumulation of ubiquitinated proteins (immunoblot) [4]: ubiquitinated proteins accumulated as soon as 0.5 h
- cellular toxicity (WST-1 viability) (RAW264.7 cells): little cellular toxicity
